In US7217532B2, “Methods for detecting DNA damage and screening for cancer therapeutics” (The Wistar Institute of Anatomy and Biology, priority 2000, dated 2007):

B1: AA residues 1–34 and 1047–1972: 53Bp1 deletion mutant, deletion of residues 35–1046 of SEQ ID NO: 2, HA-tagged (protein)
chain: MDPTGSQLDSDFSQQDTPCLIIEDSQPESQVLEDEARSEDPPTTPIRGNLLHFPSSQGEEEKEKLEGDHTIRQSQQPMKPISPVKDPVSPASQKMVIQGPSSPQGEAMVTDVLEDQKEGRSTNKENPSKALIERPSQNNIGIQTMECSLRVPETVSAATQTIKNVCEQGTSTVDQNFGKQDATVQTERGSGEKPVSAPGDDTESLHSQGEEEFDMPQPPHGHVLHRHMRTIREVRTLVTRVITDVYYVDGTEVERKVTEETEEPIVECQECETEVSPSQTGGSSGDLGDISSFSSKASSLHRTSSGTSLSAMHSSGSSGKGAGPLRGKTSGTEPADFALPSSRGGPGKLSPRKGVSQTGTPVCEEDGDAGLGIRQGGKAPVTPRGRGRRGRPPSRTTGTRETAVPGPLGIEDISPNLSPDDKSFSRVVPRVPDSTRRTDVGAGALRRSDSPEIPFQAAAGPSDGLDASSPGNSFVGLRVVAKWSSNGYFYSGKITRDVGAGKYKLLFDDGYECDVLGKDILLCDPIPLDTEVTALSEDEYFSAGVVKGHRKESGELYYSIEKEGQRKWYKRMAVILSLEQGNRLREQYGLGPYEAVTPLTKAADISLDNLVEGKRKRRSNVSSPATPTASSSSSTTPTRKITESPRASMGVLSGKRKLITSEEERSPAKRGRKSATVKPGAVGAGEFVSPCESGDNTGEPSALEEQRGPLPLNKTLFLGYAFLLTMATTSDKLASRSKLPDGPTGSSEEEEEFLEIPPFNKQYTESQLRAGAGYILEDFNEAQCNTAYQCLLIADQHCRTRKYFLCLASGIPCVSHVWVHDSCHANQLQNYRNYLLPAGYSLEEQRILDWQPRENPFQNLKVLLVSDQQQNFLELWSEILMTGGAASVKQHHSSAHNKDIALGVFDVVVTDPSCPASVLKCAEALQLPVVSQEWVIQCLIVGERIGFKQHPKYKHDYVSH
modifications: HA tag; human 53Bp1
B2: AA residues 1–34 and 1047–1711: 53Bp1 deletion mutant, deletion of residues 35–1046 and 1712–1972 of SEQ ID NO: 2, HA-tagged (protein)
chain: MDPTGSQLDSDFSQQDTPCLIIEDSQPESQVLEDEARSEDPPTTPIRGNLLHFPSSQGEEEKEKLEGDHTIRQSQQPMKPISPVKDPVSPASQKMVIQGPSSPQGEAMVTDVLEDQKEGRSTNKENPSKALIERPSQNNIGIQTMECSLRVPETVSAATQTIKNVCEQGTSTVDQNFGKQDATVQTERGSGEKPVSAPGDDTESLHSQGEEEFDMPQPPHGHVLHRHMRTIREVRTLVTRVITDVYYVDGTEVERKVTEETEEPIVECQECETEVSPSQTGGSSGDLGDISSFSSKASSLHRTSSGTSLSAMHSSGSSGKGAGPLRGKTSGTEPADFALPSSRGGPGKLSPRKGVSQTGTPVCEEDGDAGLGIRQGGKAPVTPRGRGRRGRPPSRTTGTRETAVPGPLGIEDISPNLSPDDKSFSRVVPRVPDSTRRTDVGAGALRRSDSPEIPFQAAAGPSDGLDASSPGNSFVGLRVVAKWSSNGYFYSGKITRDVGAGKYKLLFDDGYECDVLGKDILLCDPIPLDTEVTALSEDEYFSAGVVKGHRKESGELYYSIEKEGQRKWYKRMAVILSLEQGNRLREQYGLGPYEAVTPLTKAADISLDNLVEGKRKRRSNVSSPATPTASSSSSTTPTRKITESPRASMGVLSGKRKLITSEEERSPAKRGRKSATVKPGAVGAGEFVSPCESGDNTGE
modifications: HA tag; human 53Bp1
B3: AA residues 1–34 and 1220–1711: 53Bp1 deletion mutant, deletion of residues 35–1219 and 1712–1972 of SEQ ID NO: 2, HA-tagged (protein)
chain: MDPTGSQLDSDFSQQDTPCLIIEDSQPESQVLEDQGEEEFDMPQPPHGHVLHRHMRTIREVRTLVTRVITDVYYVDGTEVERKVTEETEEPIVECQECETEVSPSQTGGSSGDLGDISSFSSKASSLHRTSSGTSLSAMHSSGSSGKGAGPLRGKTSGTEPADFALPSSRGGPGKLSPRKGVSQTGTPVCEEDGDAGLGIRQGGKAPVTPRGRGRRGRPPSRTTGTRETAVPGPLGIEDISPNLSPDDKSFSRVVPRVPDSTRRTDVGAGALRRSDSPEIPFQAAAGPSDGLDASSPGNSFVGLRVVAKWSSNGYFYSGKITRDVGAGKYKLLFDDGYECDVLGKDILLCDPIPLDTEVTALSEDEYFSAGVVKGHRKESGELYYSIEKEGQRKWYKRMAVILSLEQGNRLREQYGLGPYEAVTPLTKAADISLDNLVEGKRKRRSNVSSPATPTASSSSSTTPTRKITESPRASMGVLSGKRKLITSEEERSPAKRGRKSATVKPGAVGAGEFVSPCESGDNTGE
modifications: HA tag; human 53Bp1
B4: AA residues 1–34 and 1411–1711: 53Bp1 deletion mutant, deletion of residues 35–1410 and 1712–1972 of SEQ ID NO: 2, HA-tagged (protein)
chain: MDPTGSQLDSDFSQQDTPCLIIEDSQPESQVLEDTRETAVPGPLGIEDISPNLSPDDKSFSRVVPRVPDSTRRTDVGAGALRRSDSPEIPFQAAAGPSDGLDASSPGNSFVGLRVVAKWSSNGYFYSGKITRDVGAGKYKLLFDDGYECDVLGKDILLCDPIPLDTEVTALSEDEYFSAGVVKGHRKESGELYYSIEKEGQRKWYKRMAVILSLEQGNRLREQYGLGPYEAVTPLTKAADISLDNLVEGKRKRRSNVSSPATPTASSSSSTTPTRKITESPRASMGVLSGKRKLITSEEERSPAKRGRKSATVKPGAVGAGEFVSPCESGDNTGE
modifications: HA tag; human 53Bp1
B5: AA residues 1661–1972: 53Bp1 deletion mutant, deletion of residues 1–1660 of SEQ ID NO: 2, HA-tagged (protein)
chain: MGVLSGKRKLITSEEERSPAKRGRKSATVKPGAVGAGEFVSPCESGDNTGEPSALEEQRGPLPLNKTLFLGYAFLLTMATTSDKLASRSKLPDGPTGSSEEEEEFLEIPPFNKQYTESQLRAGAGYILEDFNEAQCNTAYQCLLIADQHCRTRKYFLCLASGIPCVSHVWVHDSCHANQLQNYRNYLLPAGYSLEEQRILDWQPRENPFQNLKVLLVSDQQQNFLELWSEILMTGGAASVKQHHSSAHNKDIALGVFDVVVTDPSCPASVLKCAEALQLPVVSQEWVIQCLIVGERIGFKQHPKYKHDYVSH
modifications: HA tag; human 53Bp1

system: 53Bp1 foci in U2OS cells; experiment: 53Bp1 foci formation in cells treated with DNA damaging agents, by immunofluorescence; details: 0.2 mM etoposide; 1 mM hydroxyurea for 1 to 25 hours

| Molecule | 53Bp1-containing foci formation in treated cells |
| --- | --- |
| NC(=O)NO [HU, hydroxyurea] | do not form |

system: 53Bp1 foci in U2OS cells; experiment: Effect of wortmannin or caffeine on ionizing radiation-induced 53Bp1 foci, by immunofluorescent microscopy; assay type: cell-based, human; details: 20 μM wortmannin, 1 Gy ionizing radiation, at 30 minutes

| Molecule | reduction of percentage of cells containing 53Bp1 ionizing radiation-induced foci [%] |
| --- | --- |
| COC[C@H]1OC(=O)c2coc3c2[C@@]1(C)C1=C(C3=O)[C@@H]2CCC(=O)[C@@]2(C)C[C@H]1OC(C)=O [wortmannin] | ~50 |

system: ionizing radiation-induced foci in U2OS cells; experiment: Localization of HA-tagged 53Bp1 deletion mutants to ionizing radiation-induced foci in U2OS cells; assay type: cell-based, human; details: HA-tagged proteins expressed in U2OS cells, immunofluorescence after ionizing radiation
Excerpt: Stably transfected U2OS cell lines were created by transfecting the plasmid pSV2 [Chehab, N. H. et al, 1999 Proc. Natl. Acad. Sci., USA, 96:13777–13782] containing various N-terminal hemaglutinin (HA) tagged versions of 53Bp1. HA53Bp1 is the full-length protein bearing the HA tag on its N terminus. HA53Bp1ΔBRCT is similar to HA53Bp1 with amino acids 1713 to 1973 (the BRCT domains) of SEQ ID NO: 2 deleted therefrom. HA53Bp1C312 contains only the C-terminal 312 amino acids of 53Bp1, which include the nuclear localization signal (i.e., amino acids 1662 to 1701 of SEQ ID NO: 2 and the BRCT domain (amino acids 1702–1973 of SEQ ID NO: 2). The U2OS cells on cover slips were transiently transfected with the selected plasmid using the calcium phosphate method. Positively transfected colonies were pooled after selecting with neomycin. Expression was allowed to occur for 30 hours and then cells were treated, fixed, stained, and visualized as described below.
The following experiments were performed to identify the minimal focus-targeting (FT) domain of the relatively large (1972 amino acids) 53Bp1 protein [SEQ ID NO: 2]. The FT domain is the portion of the protein sequence required for targeting to ionizing radiation-induced foci. The FT domain participates in the mechanism of 53Bp1 relocalization. In addition, fragments of 53Bp1 that retain the ability to form ionizing radiation-induced foci act as dominant negative mutants by competing with endogenous 53Bp1 for localization to the IR-induced 53Bp1-binding sites.
A series of 53Bp1 deletion mutants was generated and expressed as HA-tagged proteins in U2OS cells. These cells were examined by immuno-fluorescence for their intracellular localization in response to ionizing radiation, as described in Examples 1 and 2. Nuclear localization is considered to be a prerequisite for targeting of 53Bp1 to ionizing radiation-induced foci. Therefore, all the mutants were constructed so that they retained the NLS of 53Bp1.

| Molecule | Ionizing Radiation-Induced Foci Localization |
| --- | --- |
| AA residues 1–1053 and 1220–1972: 53Bp1 deletion mutant, deletion of residues 1054–1219 of SEQ ID NO: 2, HA-tagged | Yes |
| full-length: full-length 53Bp1, AA residues 1–1972 of SEQ ID NO: 2, HA-tagged | Yes |
| AA residues 1–1711: 53Bp1 deletion mutant, deletion of AA residues 1712–1972 of SEQ ID NO: 2, HA-tagged | Yes |
| AA residues 1–1053 and 1411–1972: 53Bp1 deletion mutant, deletion of residues 1054–1410 of SEQ ID NO: 2, HA-tagged | No |
| B1 | Yes |
| B2 | Yes |
| B3 | Yes |
| B4 | No |
| B5 | No |
